Several values for one entry are separate records, joined by “and”; a condition that tells them apart may be missing. Identical values can stand only once.
Conditions: 343.15 K, Liquid, Vibrating tube method

CCCCCC(=O)OCC(COC(=O)CCCCC)(COC(=O)CCCCC)COC(=O)CCCCC [pentaerythritol tetrahexanoate]
Conditions	mass density
311.7 kPa	957.4 kg/m3
311.9 kPa	957.5 kg/m3
312 kPa	957.2 kg/m3
312.2 kPa	957.3 kg/m3
312.5 kPa	957.3 kg/m3
315 kPa	957.3 kg/m3
315.7 kPa	957.4 kg/m3
316 kPa	957.4 kg/m3
316.5 kPa	957.4 kg/m3
316.6 kPa	957.4 kg/m3
316.7 kPa	957.4 kg/m3
318.5 kPa	957.4 kg/m3
318.8 kPa	957.3 kg/m3
319.3 kPa	957.3 kg/m3 and 957.2 kg/m3 and 957.4 kg/m3
319.7 kPa	957.3 kg/m3
319.9 kPa	957.3 kg/m3
320.4 kPa	957.2 kg/m3
320.7 kPa	957.3 kg/m3
321.2 kPa	957.3 kg/m3
322.1 kPa	957.1 kg/m3
322.5 kPa	957.3 kg/m3
322.8 kPa	957.3 kg/m3
323.1 kPa	957.3 kg/m3
323.2 kPa	957.4 kg/m3
323.3 kPa	957.2 kg/m3
323.7 kPa	957.4 kg/m3
323.9 kPa	957.3 kg/m3
324 kPa	957.3 kg/m3
324.2 kPa	957.3 kg/m3
324.5 kPa	957.3 kg/m3
324.7 kPa	957.3 kg/m3
325.1 kPa	957.3 kg/m3
325.2 kPa	957.3 kg/m3
325.9 kPa	957.3 kg/m3
326.3 kPa	957.3 kg/m3
326.4 kPa	957.4 kg/m3
326.6 kPa	957.3 kg/m3
327 kPa	957.2 kg/m3
327.1 kPa	957.3 kg/m3
327.5 kPa	957.4 kg/m3
327.7 kPa	957.2 kg/m3
328 kPa	957.4 kg/m3
333.2 kPa	957.4 kg/m3
333.4 kPa	957.3 kg/m3
333.7 kPa	957.2 kg/m3
333.9 kPa	957.3 kg/m3
334.3 kPa	957.2 kg/m3
334.6 kPa	957.3 kg/m3
334.8 kPa	957.3 kg/m3
335.1 kPa	957.4 kg/m3
335.5 kPa	957.3 kg/m3
336.2 kPa	957.3 kg/m3
336.5 kPa	957.3 kg/m3
336.9 kPa	957.4 kg/m3
338.1 kPa	957.3 kg/m3
338.6 kPa	957.3 kg/m3
339.1 kPa	957.3 kg/m3 and 957.2 kg/m3
339.5 kPa	957.3 kg/m3
339.8 kPa	957.3 kg/m3
340.2 kPa	957.3 kg/m3
340.5 kPa	957.3 kg/m3
340.9 kPa	957.5 kg/m3
341.6 kPa	957.4 kg/m3 and 957.2 kg/m3
341.9 kPa	957.4 kg/m3
342.1 kPa	957.4 kg/m3
342.8 kPa	957.2 kg/m3 and 957.3 kg/m3
343.1 kPa	957.3 kg/m3
343.5 kPa	957.3 kg/m3
343.6 kPa	957.4 kg/m3
344.2 kPa	957.4 kg/m3
344.3 kPa	957.3 kg/m3
345.9 kPa	957.3 kg/m3
346.4 kPa	957.4 kg/m3
346.8 kPa	957.3 kg/m3
347.3 kPa	957.4 kg/m3
348 kPa	957.3 kg/m3
348.3 kPa	957.2 kg/m3
351.8 kPa	957.3 kg/m3
352.2 kPa	957.2 kg/m3
352.7 kPa	957.4 kg/m3
352.9 kPa	957.2 kg/m3
353 kPa	957.3 kg/m3
358.8 kPa	957.4 kg/m3
359.3 kPa	957.3 kg/m3
359.6 kPa	957.4 kg/m3
363.3 kPa	957.4 kg/m3
363.6 kPa	957.3 kg/m3
364 kPa	957.4 kg/m3
364.5 kPa	957.4 kg/m3
364.7 kPa	957.4 kg/m3
365 kPa	957.4 kg/m3
365.4 kPa	957.4 kg/m3
368.8 kPa	957.3 kg/m3
369.2 kPa	957.3 kg/m3
369.7 kPa	957.3 kg/m3
370.1 kPa	957.4 kg/m3
372.8 kPa	957.3 kg/m3
373.2 kPa	957.4 kg/m3
373.7 kPa	957.4 kg/m3
374.1 kPa	957.5 kg/m3 and 957.4 kg/m3
374.7 kPa	957.3 kg/m3
374.8 kPa	957.3 kg/m3
375.5 kPa	957.3 kg/m3
375.8 kPa	957.2 kg/m3
376 kPa	957.3 kg/m3
376.5 kPa	957.4 kg/m3
376.8 kPa	957.4 kg/m3
377.4 kPa	957.3 kg/m3
377.5 kPa	957.4 kg/m3
378.1 kPa	957.4 kg/m3
378.6 kPa	957.4 kg/m3
379.1 kPa	957.3 kg/m3
380.5 kPa	957.4 kg/m3
380.8 kPa	957.5 kg/m3
381.2 kPa	957.5 kg/m3
381.5 kPa	957.5 kg/m3
382.1 kPa	957.3 kg/m3
382.7 kPa	957.3 kg/m3
382.9 kPa	957.4 kg/m3
383.6 kPa	957.4 kg/m3
383.8 kPa	957.4 kg/m3
384.3 kPa	957.4 kg/m3
384.5 kPa	957.4 kg/m3
384.8 kPa	957.5 kg/m3
385.5 kPa	957.4 kg/m3 and 957.5 kg/m3
385.9 kPa	957.4 kg/m3
386.7 kPa	957.5 kg/m3
390.6 kPa	957.4 kg/m3
390.9 kPa	957.4 kg/m3
391.4 kPa	957.3 kg/m3
391.8 kPa	957.5 kg/m3
392 kPa	957.3 kg/m3
392.8 kPa	957.4 kg/m3
393.2 kPa	957.4 kg/m3
393.7 kPa	957.4 kg/m3
394 kPa	957.4 kg/m3
394.9 kPa	957.3 kg/m3
395.1 kPa	957.5 kg/m3
395.4 kPa	957.3 kg/m3
395.8 kPa	957.3 kg/m3
396.3 kPa	957.4 kg/m3
396.8 kPa	957.4 kg/m3
397.2 kPa	957.4 kg/m3
397.7 kPa	957.5 kg/m3
397.9 kPa	957.4 kg/m3
